According to patent US7053175B1, “Synthetic peptides useful in biological assays for detecting infections caused by group O HIV-1 viruses” (Bio-Rad Pasteur, priority 1997, dated 2006):
No end group written: not given here.

Tested on: sera from patients infected with group O HIV-1 retroviruses
Experiment: Immunoenzymatic test: Test No. 1 (immunoreactivity of peptides coated on microplates)
Assay type: binding, human
Set-up: key to ABSORBANCE: >: signal greater than the reading capacity of the spectrophotometer
Conditions: for ABSORBANCE: cyclized peptide 2 μg/ml
Experimental: The sera used ESS, DUR, VAU and HAD are sera from French patients infected with group O HIV-1 retroviruses. The other serum samples from patients infected with group O HIV-1 retroviruses were obtained by the Yaoundé Pasteur Centre in Cameroon and were serotyped group O according to the serological algorithm described in AIDS (1977), 11, pp 445-453.
The HIV-negative sera (n=48) were obtained from healthy volunteers.
The synthetic peptides used were dissolved in water at a concentration of 1 mg/ml (stock solution). For the solid phase sensitization step (coating), 110 μl of a solution at 2 μg/ml of each peptide (obtained by diluting the stock solution with 0.1 M carbonate buffer solution) were added to each well of the microtitre plates Microtiter™ (NUNC). After incubating overnight at room temperature, the microplates were first washed with a Tris-NaCl buffer solution pH 7.4 containing 0.1% of Tween® 20 and 0.001% sodium merthiolate, and then saturated with a PBS solution containing 0.5% of Régilait™ (dried skimmed milk). After aspirating the saturating solution, the plates were heated for 10 min at 50° C.
The serum samples were diluted 1/5 with a skimmed milk solution (citrate buffer supplemented with 0.01% of phenol red, 0.25% of chloroform and 0.25% of Kathon®), deposited in the wells of the plates and incubated for 30 min at 40° C.
After washing with a Tris-NaCl buffer solution pH 7.4 containing 0.1% of Tween® 20 and 0.001% of sodium merthiolate, 100 μl of a solution of conjugate consisting of horseradish peroxidase-labelled anti-human IgG and IgM goat antibodies, containing as preservative 0.01% of sodium merthiolate, in solution in a citrate buffer solution supplemented with 30% glycerol and 25% normal foetal calf serum, were added to each plate well and then the plates were incubated for 30 min at 40° C.
After washing with a Tris-NaCl buffer solution pH 7.4 containing 0.1% of Tween® 20 and 0.001% of sodium merthiolate, the colour was developed by adding, to each well, 100 μl of O-phenylenediamine in solution in hydrogen peroxide. The microplates were then incubated for 30 min at room temperature and in the dark. The coloured reaction was then stopped by addition of 100 μl of 4N sulphuric acid. The absorbance (A) was determined at 490 and 620 nm.
The relative absorbance (A490-A620) read in each well is proportional to the immunoreactivity of each peptide. It indicates the ability of each peptide to react with the biological sample with which the test is carried out. The cut-off value was determined as being an absorbance equal to 0.15. It corresponds to the mean of the negative values (n=48) plus 12 standard deviations.
The reactivity of the peptides of the invention (peptide No. 3 (4B), peptide No. 2 (3B) and peptide No. 1 (2B), all in cyclized form), was compared with that of two synthetic peptides having, as sequence, a portion of the natural sequence of the envelope (env) of the VAU isolate (group O HIV-1 retrovirus) and comprising an immunodominant epitope of gp41.
For the study, these peptides were used in cyclized form.

LLNLWGCKNRAICYTSVKWNKT (cysteine pairing not given here) [VAU 22 AA, reference compound]
ABSORBANCE (serum 134): > | ABSORBANCE (serum 402): > | ABSORBANCE (serum 625): > | ABSORBANCE (serum 1062): > | ABSORBANCE (serum 1105*): 0.099 | ABSORBANCE (serum 1581): 1.112 | ABSORBANCE (serum 1702): > | ABSORBANCE (serum 1754): 1.263 | ABSORBANCE (serum 2294): > | ABSORBANCE (serum 2312): > | ABSORBANCE (serum 2313): > | ABSORBANCE (serum 2352): > | ABSORBANCE (serum 2551): > | ABSORBANCE (serum 2700): > | ABSORBANCE (serum 3016): > | ABSORBANCE (serum 3136): > | ABSORBANCE (serum 3235): > | ABSORBANCE (serum 3236): > | ABSORBANCE (serum 3302): > | ABSORBANCE (serum 3482): > | ABSORBANCE (serum 3529): > | ABSORBANCE (serum 3600*): > | ABSORBANCE (serum 3627*): > | ABSORBANCE (serum 3637): 0.779 | ABSORBANCE (serum 3653): 1.441 | ABSORBANCE (serum 3771): > | ABSORBANCE (serum 3884*): > | ABSORBANCE (serum 3891): > | ABSORBANCE (serum 3935): 0.138 | ABSORBANCE (serum 3945): > | ABSORBANCE (serum 4021*): 0.050 | ABSORBANCE (serum 4288*): 2.337 | ABSORBANCE (serum 4364): > | ABSORBANCE (serum 4434): 2.273 | ABSORBANCE (serum 4477): 2.511 | ABSORBANCE (serum 4489*): 1.318 | ABSORBANCE (serum 5149*): > | ABSORBANCE (serum 5164): > | ABSORBANCE (serum 5210): > | ABSORBANCE (serum 5270*): > | ABSORBANCE (serum 5373): 1.359 | ABSORBANCE (serum 5453): 1.267 | ABSORBANCE (serum 5766*): > | ABSORBANCE (serum 5931): 0.202 | ABSORBANCE (serum 5969*): 2.491 | ABSORBANCE (serum 6111): > | ABSORBANCE (serum 6165): > | ABSORBANCE (serum 6198*): > | ABSORBANCE (serum 6295*): 0.972 | ABSORBANCE (serum 6487): 2.889 | ABSORBANCE (serum 6512*): 0.120 | ABSORBANCE (serum 6627): > | ABSORBANCE (serum 6689*): > | ABSORBANCE (serum 6697): > | ABSORBANCE (serum 6782): 2.190 | ABSORBANCE (serum 6891): 0.359 | ABSORBANCE (serum 6976*): > | ABSORBANCE (serum 6998): > | ABSORBANCE (serum 7007): > | ABSORBANCE (serum 7120): > | ABSORBANCE (serum 7212): > | ABSORBANCE (serum 7258*): > | ABSORBANCE (serum 7297*): > | ABSORBANCE (serum 7439): > | ABSORBANCE (serum 7443): 0.920 | ABSORBANCE (serum DUR*): 0.118 | ABSORBANCE (serum ESS*): > | ABSORBANCE (serum HAD): 0.789 | ABSORBANCE (serum VAU*): >

LLSLWGCRGKAVCYTSVQWNET [PEPTIDE No. 1 (2B)]
ABSORBANCE (serum 134): > | ABSORBANCE (serum 402): > | ABSORBANCE (serum 625): > | ABSORBANCE (serum 1062): > | ABSORBANCE (serum 1105*): > | ABSORBANCE (serum 1581): > | ABSORBANCE (serum 1702): 1.162 | ABSORBANCE (serum 1754): > | ABSORBANCE (serum 2294): 0.447 | ABSORBANCE (serum 2312): > | ABSORBANCE (serum 2313): > | ABSORBANCE (serum 2352): 0.205 | ABSORBANCE (serum 2551): > | ABSORBANCE (serum 2700): > | ABSORBANCE (serum 3016): 0.243 | ABSORBANCE (serum 3136): 0.302 | ABSORBANCE (serum 3235): > | ABSORBANCE (serum 3236): > | ABSORBANCE (serum 3302): 0.386 | ABSORBANCE (serum 3482): 1.473 | ABSORBANCE (serum 3529): 1.803 | ABSORBANCE (serum 3600*): 2.743 | ABSORBANCE (serum 3627*): 2.910 | ABSORBANCE (serum 3637): > | ABSORBANCE (serum 3653): 0.044 | ABSORBANCE (serum 3771): 0.544 | ABSORBANCE (serum 3884*): 1.839 | ABSORBANCE (serum 3891): 2.780 | ABSORBANCE (serum 3935): 0.307 | ABSORBANCE (serum 3945): > | ABSORBANCE (serum 4021*): > | ABSORBANCE (serum 4288*): 2.802 | ABSORBANCE (serum 4364): 1.382 | ABSORBANCE (serum 4434): > | ABSORBANCE (serum 4477): > | ABSORBANCE (serum 4489*): > | ABSORBANCE (serum 5149*): > | ABSORBANCE (serum 5164): > | ABSORBANCE (serum 5210): > | ABSORBANCE (serum 5270*): > | ABSORBANCE (serum 5373): > | ABSORBANCE (serum 5453): > | ABSORBANCE (serum 5766*): > | ABSORBANCE (serum 5931): > | ABSORBANCE (serum 5969*): > | ABSORBANCE (serum 6111): > | ABSORBANCE (serum 6165): 2.714 | ABSORBANCE (serum 6198*): > | ABSORBANCE (serum 6295*): > | ABSORBANCE (serum 6487): 2.687 | ABSORBANCE (serum 6512*): > | ABSORBANCE (serum 6627): > | ABSORBANCE (serum 6689*): > | ABSORBANCE (serum 6697): > | ABSORBANCE (serum 6782): 2.462 | ABSORBANCE (serum 6891): 0.062 | ABSORBANCE (serum 6976*): > | ABSORBANCE (serum 6998): > | ABSORBANCE (serum 7007): > | ABSORBANCE (serum 7120): > | ABSORBANCE (serum 7212): > | ABSORBANCE (serum 7258*): 2.477 | ABSORBANCE (serum 7297*): > | ABSORBANCE (serum 7439): > | ABSORBANCE (serum 7443): > | ABSORBANCE (serum DUR*): > | ABSORBANCE (serum ESS*): 2.494 | ABSORBANCE (serum HAD): 0.041 | ABSORBANCE (serum VAU*): > | immunoreactivity compared with the other peptides (in words) (summary of Table IV): more immunoreactive than the VAU 22 AA peptide
